Activity calls are given as the source filed them. The rule behind the calls is not given here.
How the values were obtained:
[1] = tested on: A549; experiment: Antiproliferative activity against human A549 cells assessed as inhibition of cell growth incubated for 48 hrs by MTT assay; type: functional, cell-based; conditions: A549, 48 h
[2] = tested on: HeLa; experiment: Antiproliferative activity against human HeLa cells assessed as inhibition of cell growth incubated for 48 hrs by MTT assay; type: functional, cell-based
[3] = tested on: HepG2; experiment: Antiproliferative activity against human HepG2 cells assessed as inhibition of cell growth incubated for 48 hrs by MTT assay; type: functional, cell-based; conditions: HepG2, 48 h
[4] = Acute toxicity in BALB/c mouse xenografted with human HGC-27 cells assessed as venous congestion in spleen at 40 mg/kg,ip administrated every other day for 17 days by hematoxylin and eosin staining method; type: organism-based; conditions: in vivo, 408 h, time 17 day
[5] = Acute toxicity in BALB/c mouse xenografted with human HGC-27 cells assessed as venous congestion in liver at 40 mg/kg,ip administrated every other day for 17 days by hematoxylin and eosin staining method; type: organism-based; conditions: in vivo, 408 h, time 17 day
[6] = Acute toxicity in BALB/c mouse xenografted with human HGC-27 cells assessed as change in body weight at 40 mg/kg,ip administrated every other day for 17 days; type: organism-based; conditions: in vivo, 408 h, time 17 day
[7] = tested on: HGC-27; experiment: Antitumor activity against human HGC-27 cells xenografted in BALB/c mouse assessed as tumor growth inhibition at 40 mg/kg,ip administrated every other day for 17 days relative to control; type: functional; conditions: HGC-27, 408 h, time 17 day, read-out: TGI
[8] = tested on: HGC-27; experiment: Antiproliferative activity against human HGC-27 cells assessed as inhibition of cell growth incubated for 48 hrs by MTT assay; type: functional, cell-based; conditions: HGC-27, 48 h, read-out: IC50
[9] = target: T1, DNA topoisomerase 1 (Homo sapiens) (UniProt P11387); experiment: Inhibition of human topoisomerase 1 assessed as relaxation of supercoiled pBR322 plasmid DNA at 100 uM incubated for 10 to 15 mins by EtBr staining based agarose gel electrophoresis method; conditions: time 10-15 min
T1 sequence (whole entry): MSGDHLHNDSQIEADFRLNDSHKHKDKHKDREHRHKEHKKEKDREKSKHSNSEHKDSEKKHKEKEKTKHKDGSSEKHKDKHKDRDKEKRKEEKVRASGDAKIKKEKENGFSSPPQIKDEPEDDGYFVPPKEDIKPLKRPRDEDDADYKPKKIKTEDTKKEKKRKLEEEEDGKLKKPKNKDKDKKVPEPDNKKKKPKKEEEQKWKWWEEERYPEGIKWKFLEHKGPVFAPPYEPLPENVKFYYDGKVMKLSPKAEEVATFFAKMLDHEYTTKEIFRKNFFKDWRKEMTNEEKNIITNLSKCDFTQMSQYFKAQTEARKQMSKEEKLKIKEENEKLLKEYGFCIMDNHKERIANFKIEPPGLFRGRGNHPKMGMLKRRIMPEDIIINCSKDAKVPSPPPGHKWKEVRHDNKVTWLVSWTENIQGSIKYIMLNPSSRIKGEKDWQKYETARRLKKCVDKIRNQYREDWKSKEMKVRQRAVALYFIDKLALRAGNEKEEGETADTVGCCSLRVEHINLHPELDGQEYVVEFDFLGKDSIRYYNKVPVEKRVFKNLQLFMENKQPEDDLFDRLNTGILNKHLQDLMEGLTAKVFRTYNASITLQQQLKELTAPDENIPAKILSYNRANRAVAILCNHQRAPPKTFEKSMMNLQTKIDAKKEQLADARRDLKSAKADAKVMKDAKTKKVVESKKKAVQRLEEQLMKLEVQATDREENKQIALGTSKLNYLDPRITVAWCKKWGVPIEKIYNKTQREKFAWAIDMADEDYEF

[10] = target: Poly [ADP-ribose] polymerase 1 (Homo sapiens, UniProt P09874); experiment: Inhibition of PARP-1 (unknown origin) incubated for 70 mins by HT universal chemiluminescent assay
Poly [ADP-ribose] polymerase 1, sequence (P09874 whole entry): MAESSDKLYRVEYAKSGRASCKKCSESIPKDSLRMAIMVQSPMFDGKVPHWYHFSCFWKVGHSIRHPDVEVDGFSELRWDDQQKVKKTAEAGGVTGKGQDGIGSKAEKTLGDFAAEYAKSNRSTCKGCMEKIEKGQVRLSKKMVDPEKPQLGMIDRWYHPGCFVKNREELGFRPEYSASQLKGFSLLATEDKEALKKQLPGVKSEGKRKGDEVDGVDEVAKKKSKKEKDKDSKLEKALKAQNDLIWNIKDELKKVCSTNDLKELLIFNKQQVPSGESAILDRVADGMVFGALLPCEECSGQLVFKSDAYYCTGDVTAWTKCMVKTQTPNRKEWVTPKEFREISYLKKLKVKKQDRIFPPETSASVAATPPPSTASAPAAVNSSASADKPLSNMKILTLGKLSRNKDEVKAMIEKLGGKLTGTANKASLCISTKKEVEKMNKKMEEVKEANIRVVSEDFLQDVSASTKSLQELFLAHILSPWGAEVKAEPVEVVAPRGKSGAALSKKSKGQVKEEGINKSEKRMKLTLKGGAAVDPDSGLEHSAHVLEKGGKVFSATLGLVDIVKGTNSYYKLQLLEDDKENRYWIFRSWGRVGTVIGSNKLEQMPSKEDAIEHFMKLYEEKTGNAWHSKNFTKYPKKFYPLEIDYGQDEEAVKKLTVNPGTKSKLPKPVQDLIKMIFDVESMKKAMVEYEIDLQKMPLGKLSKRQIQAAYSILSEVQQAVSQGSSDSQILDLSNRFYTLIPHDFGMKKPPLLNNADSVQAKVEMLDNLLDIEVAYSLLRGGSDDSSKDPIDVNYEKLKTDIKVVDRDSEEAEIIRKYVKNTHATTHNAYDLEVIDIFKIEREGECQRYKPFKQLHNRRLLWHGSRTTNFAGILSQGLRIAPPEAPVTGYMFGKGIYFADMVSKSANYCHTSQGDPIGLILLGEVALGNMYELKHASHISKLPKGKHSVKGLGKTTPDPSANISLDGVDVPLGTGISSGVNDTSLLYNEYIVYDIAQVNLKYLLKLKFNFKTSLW

[11] = tested on: L02; experiment: Antiproliferative activity against human L02 cells assessed as inhibition of cell growth incubated for 48 hrs by MTT assay; type: functional, cell-based; conditions: L02, 48 h

inhibition [9] | IC50 [10] | Structure (SMILES) | IC50 [1] | IC50 [2] | IC50 [3] | Activity [4] | Activity [5] | Activity [6] | inhibition in vivo at 40 mg/kg [7] | IC50 [8] | IC50 [11]
 |  | O=C1CCC[C@@H]2[C@H]3CCCN4CCC[C@@H](CN12)[C@@H]34 [MATRINE] | 5880 µM | 6750 µM | 4360 µM | Toxic | Toxic | Toxic | 9.7% | 4180 µM | 
Active | 2.58 µM | O=C(CCC[C@@H]1[C@H]2CCCN3CCC[C@@H](CN1C(=O)OCC1c4ccccc4-c4ccccc41)[C@@H]23)Nc1nc2ccccc2[nH]1 | 12.3 µM | 16.1 µM | 6.45 µM |  |  |  |  | 7.38 µM | > 64 µM
